Reference: patent US10316131B2, “Hyperbranched polymer modified with isocyanate linker and mix of short and long chain alkyl polyether” (priority 2014, dated 2019)
Values belong to the compound of their own block, whether it stands above or below them.

Assays:
[1] = Solubilization measurements with a highthroughput screening robot; format: physicochemical
Description: Solubilization measurements were carried out with a highthroughput screening robot. […] After the addition of stirring bars and 24 hours incubation time the samples were filtrated through polypropylene filters in order to separate dissolved active and its solid form. The amount of solubilized active was determined by UV/VIS spectroscopy.

[2] = tested on: Puccinia Recondata/Tritici; test: Greenhouse test of pesticidal activity on infected wheat, suspension concentrates SC1 and SC2; format: in vivo, Puccinia Recondata/Tritici on wheat variety Monopol
Description: An aqueous suspension concentrate (“SC1”) was prepared as in Application Example 1. The pesticidal activity was tested in greenhouse tests on wheat variety Monopol, which was infected with the fungi Puccinia Recondata/Tritici. The plants were treated with SC1 three days after the inoculation at a use rate of […] (200 l water/ha). The use rate of the polymers of the invention was kept constant at 250 g per ha.
The above greenhouse tests were also made with a suspension concenctrate “SC2” of the triazole fungicide 2-[4-(4-chlorophenoxy)-2-(trifluoromethyl)phenyl]-1-(1H-1,2,4-triazol-1-yl)propan-2-ol (“triazole fungicide”) (100 g/ha) instead of fluxapyroxad.

[3] = 10 mg solid active in 3 wt % polymer solution in CIPAC water D, 24 hours, listed as of the active = no polymer

Solubility of carbamazepine [1, 3]: 181 pmm
SMILES: NC(=O)N1c2ccccc2C=Cc2ccccc21 [carbamazepine]

SMILES: N#Cc1nn(-c2c(Cl)cc(C(F)(F)F)cc2Cl)c(N)c1[S+]([O-])C(F)(F)F (centres unmarked) [fipronil]
Solubility of fipronil [1]: 12 pmm

SMILES: Cn1cc(C(=O)Nc2ccccc2-c2cc(F)c(F)c(F)c2)c(C(F)F)n1 [fluxapyroxad]
Solubility of fluxapyroxad [1, 3]: 10 pmm
% infected leaf area, use rate of active 33% ([2]; fluxapyroxad SC1, use rate 8.3 pesticide per ha, polymer 250 g per ha, treated three days after inoculation, 7 days after inoculation): 80%
% infected leaf area, use rate of active 100% ([2]; fluxapyroxad SC1, use rate 25 pesticide per ha, polymer 250 g per ha, treated three days after inoculation, 7 days after inoculation): 79%

SMILES: CC(O)(Cn1cncn1)c1ccc(Oc2ccc(Cl)cc2)cc1C(F)(F)F (centres unmarked) [triazole fungicide, 2-[4-(4-chlorophenoxy)-2-(trifluoromethyl)phenyl]-1-(1H-1,2,4-triazol-1-yl)propan-2-ol]
Solubility of the triazole fungicide [1, 3]: 15 pmm
% infected leaf area, use rate of active 100% ([2]; triazole fungicide SC2 (100 g/ha) instead of fluxapyroxad): 83%
% infected leaf area, use rate of active 33% ([2]; triazole fungicide SC2 instead of fluxapyroxad, 33% use rate): 91%
